Values after ≈ are worked out from the molar mass of the structure shown. Like-named read-outs stand apart in the source and are kept apart here.
Assays:
HSV-1 corneae = assay: CPE inhibition, HSV-1 corneae in Vero cells; assay type: cell-based, type 1 herpes simplex virus; details: Human alphaherpesvirus 1, MIC = concentration protecting 50% of cells from CPE
Experimental: (§1) The antiviral activity of the test substances on various human pathogenic DNA and RNA viruses was investigated in cell culture test systems.
(§2) The test substances are diluted in ethanol to a final concentration of 1 mg/ml before the test, and Dulbecco's minimal essential medium (MEM) is used for further dilution steps. For the test, serial 3-fold dilutions of the test substances are made up in 96-well microtiter plates. Monkey kidney cells (Veto) in medium199 (5% FCS) or human embryonic diploid pulmonary fibroblast cells MRC-5 (Whittaker) are added in a concentration of 2×10^4 cells/well and incubated at 37° C. (5% CO2) for 3 h.
(§3) The test mixtures contain the test substance in concentrations from 400 μg/ml to 0.18 μg/ml in MEM supplemented with 4% FCS (HeLa) or 2% FCS (Veto), 100 U/ml penicillin G and 100 μg/ml streptomycin.
(§4) The cells are then infected with type 1 herpes simplex virus (corneas), type I herpes simplex virus VR733, type 1 herpes simplex virus VR539 (hominis), type 2 herpes simplex virus VR734 (MS), human cytomegalovirus VR977 or varicella zoster virus VR586 in concentrations at which the cell lawn is completely destroyed within 3 days (CMV: 7 days, VZV: 10 days) (for example HSV-1 corneae: 0.035 PFU/Vero cell, HSV-2: 0.066 PFU/Vero cell).
(§5) The cultures are incubated at 37° C. in the presence of 5% CO2. All the investigations are carried out as duplicate determinations; controls are determined only once per plate.
(§6) The untreated infection controls show a complete cytopathogenic effect (CPE) after incubation for a further 48 h (HCMV after 6 days, VZV after 9 days). After microscopic inspection of the cell cultures (HSV, HCMV, VZV), they are then stained (only HSV) with neutral red in accordance with the vital staining method of Finter (1966). The antiviral activity of a test substance is defined as the minimum inhibitory concentration (MIC) which is required to protect 50% of the cells from the cytopathogenic effect of the virus.

HSV-1 VR733 = assay: CPE inhibition, HSV-1 VR733 in Vero cells; assay type: cell-based, type 1 herpes simplex virus; details: Human alphaherpesvirus 1, MIC = concentration protecting 50% of cells from CPE
Experimental: as §1, §2, §3, §4, §5, §6

HSV-1 VR539 = assay: CPE inhibition, HSV-1 VR539 in Vero cells; assay type: cell-based, type 1 herpes simplex virus; details: Human alphaherpesvirus 1, MIC = concentration protecting 50% of cells from CPE
Experimental: as §1, §2, §3, §4, §5, §6

HSV-1 labialis = assay: CPE inhibition, HSV-1 labialis in Vero cells; assay type: cell-based, type 1 herpes simplex virus; details: Human alphaherpesvirus 1, MIC = concentration protecting 50% of cells from CPE
Experimental: as §1, §2, §3, §4, §5, §6

HSV-2 VR734 = assay: CPE inhibition, HSV-2 VR734 in Vero cells; assay type: cell-based, type 2 herpes simplex virus; details: Human alphaherpesvirus 2, MIC = concentration protecting 50% of cells from CPE
Experimental: as §1, §2, §3, §4, §5, §6

HCMV VR977 = assay: CPE inhibition, HCMV VR977 in MRC-5 cells; assay type: cell-based, human cytomegalovirus; details: Human betaherpesvirus 5, MRC5, MIC = concentration protecting 50% of cells from CPE
Experimental: as §1, §2, §3, §4, §5, §6

VZV VR586 = assay: CPE inhibition, VZV VR586 in MRC-5 cells; assay type: cell-based, varicella zoster virus; details: Human alphaherpesvirus 3, MRC5, read-out: MIC VZV VR586
Experimental: as §1, §2, §3, §5
as §6, with “After” for “The untreated infection controls show a complete cytopathogenic effect (CPE) after incubation for a further 48 h (HCMV after 6 days, VZV after 9 days). After”

[1] = Cytotoxicity by microscopic inspection, Vero cells; assay type: cell-based; details: monkey
Experimental: as §2, §3, §5
(§7) After incubation for 24 h, the cytotoxicity of the test substances is determined by microscopic inspection of the cell cultures. The maximum tolerated dose (MTD) is designated as the highest concentration of product which, under the said test conditions, is insufficient to cause microscopically detectable cell damage.

[2] = Cytotoxicity by microscopic inspection, MRC-5 cells; assay type: cell-based; details: human, read-out: MTD (maximum tolerated dose)
Experimental: as §2, §3, §5, §7

HSV-1 = assay: Therapeutic efficacy in NMRI mice infected intraperitoneally with HSV-1; assay type: in vivo; details: for Surviving/group size: observed 2 weeks; for ED50: Human alphaherpesvirus 1, from Reed & Muench, read-out: IC50 (the source's name)
herpesviruses = assay: Antiviral activity against herpesviruses (general statement); details: in words
[3] = Vero cells, 24 h, read-out: MTD (maximum tolerated dose)

## Nc1ncc2c(nnn2COC(CO)CO)n1 [Example 9, 5-amino-1H-1-[(1,3-dihydroxy-2-propoxy)methyl]-1,2,3-triazolo[4,5-d]pyrimidine]
HSV-1 corneae
  EC50: 1.65 µg/mL (≈ 6.87 µM)
HSV-1 VR733
  EC50: 1.28 µg/mL (≈ 5.33 µM)
HSV-1 VR539
  EC50: 4.94 µg/mL (≈ 20.6 µM)
HSV-1 labialis
  EC50: 1.1 µg/mL (≈ 4.58 µM)
HSV-2 VR734
  EC50: 2.93 µg/mL (≈ 12.2 µM)
HCMV VR977
  EC50: < 0.27 µg/mL
VZV VR586
  EC50: < 0.18 µg/mL
[1]; [3]
  MNTC at 24 h: ≥ 333 µg/mL
[2]
  MNTC at 24 h: ≥ 356 µg/mL
HSV-1; 9 × 3 μmol/kg ip
  Average survival time: 6.3 ± 0.6 days
  Surviving/group size: 2/5
HSV-1; 9 × 3 μmol/kg po
  Average survival time: 8.8 ± 1.6 days
  Surviving/group size: 0/5
HSV-1; 9 × 10 μmol/kg ip
  Surviving/group size: 5/5
HSV-1; 9 × 10 μmol/kg po
  Average survival time: 6.2 ± 0.5 days
  Surviving/group size: 0/5
HSV-1; 9 × 30 μmol/kg ip
  Surviving/group size: 5/5
HSV-1; 9 × 30 μmol/kg po
  Average survival time: 8.0 ± 1.7 days
  Surviving/group size: 0/5
HSV-1; ip
  ED50: 3.7 µmol/kg
HSV-1; po
  ED50: > 30 µmol/kg
herpesviruses
  activity against herpesviruses: particularly high activity against herpesviruses

## Nc1nc(O)c2ncn(COC(CO)CO)c2n1 [Ganciclovir, reference compound]
HSV-1 corneae
  EC50: 0.85 µg/mL (≈ 3.33 µM)
HSV-1 VR733
  EC50: 0.95 µg/mL (≈ 3.72 µM)
HSV-1 VR539
  EC50: 1.65 µg/mL (≈ 6.46 µM)
HSV-1 labialis
  EC50: ≤ 0.18 µg/mL
HSV-2 VR734
  EC50: 1.93 µg/mL (≈ 7.56 µM)
HCMV VR977
  EC50: 0.06 µg/mL (≈ 0.235 µM)
VZV VR586
  EC50: 6.13 µg/mL (≈ 24 µM)
[1]; [3]
  MNTC at 24 h: ≥ 400 µg/mL
[2]
  MNTC at 24 h: ≥ 400 µg/mL
HSV-1; 9 × 3 μmol/kg ip
  Average survival time: 8.0 ± 0 days
  Surviving/group size: 3/5
HSV-1; 9 × 3 μmol/kg po
  Average survival time: 11.3 ± 1.5 days
  Surviving/group size: 1/5
HSV-1; 9 × 10 μmol/kg ip
  Surviving/group size: 5/5
HSV-1; 9 × 10 μmol/kg po
  Average survival time: 9.5 ± 0.7 days
  Surviving/group size: 3/5
HSV-1; 9 × 30 μmol/kg ip
  Surviving/group size: 5/5
HSV-1; 9 × 30 μmol/kg po
  Surviving/group size: 5/5
HSV-1; ip
  ED50: < 3 µmol/kg
HSV-1; po
  ED50: 6.8 µmol/kg

## Nc1nc2c(ncn2COCCO)c(=O)[nH]1 [Aciclovir, reference compound]
HSV-1 corneae
  EC50: ≤ 0.98 µg/mL
HSV-1 VR733
  EC50: 0.56 µg/mL (≈ 2.49 µM)
HSV-1 VR539
  EC50: 0.98 µg/mL (≈ 4.35 µM)
HSV-1 labialis
  EC50: 0.56 µg/mL (≈ 2.49 µM)
HSV-2 VR734
  EC50: ≤ 0.4 µg/mL
HCMV VR977
  EC50: 1.16 µg/mL (≈ 5.15 µM)
[1]; vero cells
  MNTC at 24 h: ≥ 400 µg/mL
[2]
  MNTC at 24 h: ≥ 400 µg/mL

## CC(=O)OCC(COC(C)=O)OCn1nnc2nc(N)ncc21 [Example 10, 5-amino-1H-1-[(1,3-diacetoxy-2-propoxy)methyl]-1,2,3-triazolo [4,5-d]pyrimidine]
HSV-1 corneae
  EC50: 14.8 µg/mL (≈ 45.7 µM)
HSV-1 VR733
  EC50: 11.5 µg/mL (≈ 35.5 µM)
HSV-1 VR539
  EC50: 24.7 µg/mL (≈ 76.1 µM)
HSV-1 labialis
  EC50: 9.88 µg/mL (≈ 30.5 µM)
HSV-2 VR734
  EC50: 24.7 µg/mL (≈ 76.1 µM)
HCMV VR977
  EC50: < 0.3 µg/mL
VZV VR586
  EC50: < 0.18 µg/mL
[1]; [3]
  MNTC at 24 h: ≥ 311 µg/mL
[2]
  MNTC at 24 h: ≥ 74.1 µg/mL
HSV-1; 9 × 9 μmol/kg ip
  Average survival time: 11.0 ± 1.4 days
  Surviving/group size: 3/5
HSV-1; 9 × 9 μmol/kg po
  Average survival time: 8.8 ± 1.8 days
  Surviving/group size: 0/5
HSV-1; 9 × 31 μmol/kg ip
  Surviving/group size: 5/5
HSV-1; 9 × 31 μmol/kg po
  Average survival time: 12.0 days
  Surviving/group size: 4/5
HSV-1; 9 × 93 μmol/kg ip
  Surviving/group size: 5/5
HSV-1; 9 × 93 μmol/kg po
  Surviving/group size: 5/5
HSV-1; ip
  ED50: < 9 µmol/kg
HSV-1; po
  ED50: 19.7 µmol/kg
herpesviruses
  activity against herpesviruses: particularly high activity against herpesviruses

## CC(=O)Nc1ncc2c(nnn2COC(CO)CO)n1 [Example 8, 5-acetamido-1H-1-[(1,3-dihydroxy-2-propoxy)methyl]-1,2,3-triazolo[4,5-d]pyrimidine]
HSV-1 corneae
  EC50: 11.5 µg/mL (≈ 40.8 µM)
HSV-1 VR733
  EC50: 6.58 µg/mL (≈ 23.3 µM)
HSV-1 VR539
  EC50: 24.7 µg/mL (≈ 87.5 µM)
HSV-1 labialis
  EC50: 7.68 µg/mL (≈ 27.2 µM)
HSV-2 VR734
  EC50: 37 µg/mL (≈ 131 µM)
HCMV VR977
  EC50: 7.13 µg/mL (≈ 25.3 µM)
VZV VR586
  EC50: 0.18 µg/mL (≈ 0.638 µM)
[1]; [3]
  MNTC at 24 h: ≥ 333 µg/mL
[2]
  MNTC at 24 h: ≥ 311 µg/mL

## CC(C)OCC(COC(C)C)OCn1nnc2nc(N)ncc21 [Example 7, 5-amino-1H-1-[(1,3-bis-isopropoxy-2-propoxy)methyl]-1,2,3-triazolo[4,5-d]pyrimidine]
herpesviruses
  activity against herpesviruses: particularly high activity against herpesviruses
